4 compounds from patent US9593149B2, “Amylin and calcitonin receptor agonist” (Novo Nordisk A/S, priority 2014, dated 2017) can be followed below.

Converted amounts (≈) assume the structure as drawn. Numbered stars: 1 amine (or outer) side, 2 acyl side, 3 side chain; on linkers, the order of the positions; unused ones are H or OH. Peptide text beside a SMILES is read from it. * marks the point of attachment. C20 diacid = O=C(O)CCCCCCCCCCCCCCCCCCC(=O)*; C18 diacid = O=C(O)CCCCCCCCCCCCCCCCC(=O)*; γGlu = O=C(O)[C@H](CCC(=O)[*:2])N[*:1]

The series can be described thus: Assay (IV) determination of solubility. Type of series: physicochemical. The procedure:
Assay (IV)—Determination of Solubility
The mimylin peptide was dissolved in water at ˜500 nmol/ml and mixed 1:1 with a series of buffers (100 mM glycylglycine pH 3.0, 100 mM glycylglycine pH 4.0, 100 mM glycylglycine pH 5.0, 100 mM bistrispropane pH 6.0, 100 mM bistrispropane pH 6.5, 100 mM bistrispropane pH 7.0, 100 mM bistrispropane pH 7.5, 100 mM bistrispropane pH 8.0).

Take `CC(C)C[C@H](NC(=O)[C@H](C)NC(=O)[C@H](C)NC(=O)[C@@H](NC(=O)[C@H](CO)NC(=O)[C@H](Cc1cnc[nH]1)NC(=O)[C@H](CCC(=O)O)NC(=O)[C@H](CO)NC(=O)[C@H](C)NC(=O)[C@H](CCC(=O)O)NC(=O)CCCCCCCCCCCCCCCCC(=O)O)[C@@H](C)O)C(=O)NCC(=O)N[C@@H](CCCNC(=N)N)C(=O)N[C@@H](CC(C)C)C(=O)N[C@@H](CO)C(=O)N[C@@H](C)C(=O)N[C@@H](CCC(=O)O)C(=O)N[C@@H](CC(C)C)C(=O)N[C@@H](Cc1cnc[nH]1)C(=O)N[C@@H](CCC(=O)O)C(=O)N[C@@H](CC(C)C)C(=O)N[C@@H](C)C(=O)N[C@H](C(=O)N[C@@H](CC(C)C)C(=O)N1CCC[C@H]1C(=O)N[C@@H](CCCNC(=N)N)C(=O)N[C@H](C(=O)N[C@@H](CCC(=O)O)C(=O)N[C@H](C(=O)NCC(=O)N1CCC[C@H]1C(=O)N[C@@H](CCC(=O)O)C(=O)N[C@@H](CO)C(=O)N1CCC[C@H]1C(N)=O)[C@@H](C)O)[C@@H](C)O)[C@@H](C)O` [compound 17, [N-terminal(C18 diacid), 5H]mimylin] ({C18 diacid}-EASEHSTAALGRLSAELHELATLPRTETGPESP-NH2): the Solubility result (pH 3.0) was “≧200 μM”; the Solubility entry (pH 4.0) is recorded as “≧200 μM”; the Solubility entry (pH 5.0) is “≧200 μM”; the Solubility result (pH 6.0) is “≧200 μM”; the Solubility result (pH 6.5) is listed as “≧200 μM”; the Solubility entry (pH 7.0) is “≧200 μM”. Besides, the Solubility result runs as follows: (pH 7.5) “≧200 μM”; (pH 8.0) “≧200 μM”.

For `CC(C)C[C@H](NC(=O)[C@H](CCCNC(=N)N)NC(=O)CNC(=O)[C@H](CC(C)C)NC(=O)[C@@H](NC(=O)[C@H](C)NC(=O)[C@@H](NC(=O)[C@H](CO)NC(=O)[C@H](CC(C)C)NC(=O)[C@H](CCC(=O)O)NC(=O)[C@H](CO)NC(=O)[C@H](C)NC(=O)CC[C@H](NC(=O)CCCCCCCCCCCCCCCCCCC(=O)O)C(=O)O)[C@@H](C)O)[C@@H](C)O)C(=O)N[C@@H](CO)C(=O)N[C@@H](C)C(=O)N[C@@H](CCC(=O)O)C(=O)N[C@@H](CC(C)C)C(=O)N[C@@H](Cc1cnc[nH]1)C(=O)N[C@@H](CCC(=O)O)C(=O)N[C@@H](CC(C)C)C(=O)N[C@@H](CO)C(=O)N[C@H](C(=O)N[C@@H](Cc1ccc(O)cc1)C(=O)N1CCC[C@H]1C(=O)N[C@@H](CCCNC(=N)N)C(=O)N[C@H](C(=O)N[C@@H](CCC(=O)O)C(=O)N[C@H](C(=O)NCC(=O)N[C@@H](CO)C(=O)NCC(=O)N[C@@H](CO)C(=O)N1CCC[C@H]1C(N)=O)[C@@H](C)O)[C@@H](C)O)[C@@H](C)O` [compound 92, [N-terminal(C20 diacid-gGlu), des1, 9T, 21S, 23Y, 30S, 31G]mimylin] ({C20 diacid-γGlu}-ASELSTATLGRLSAELHELSTYPRTETGSGSP-NH2), the Solubility result (pH 3.0) is “≧200 μM”; the Solubility entry (pH 4.0) is listed as “≧200 μM”; the Solubility result (pH 6.0) is given as “≧200 μM”; the Solubility result (pH 6.5) was “≧200 μM”; the Solubility entry (pH 7.0) is “≧200 μM”; the Solubility result (pH 7.5) was “≧200 μM”. For the same compound, the Solubility result (pH 8.0) is reported as “≧200 μM”. Moreover, under “pH 5.0”, the solubility at 18 h came out at 169 µM (≈ 638 µg/mL).

Regarding `CC(C)C[C@H](NC(=O)[C@H](C)NC(=O)[C@H](C)NC(=O)[C@@H](NC(=O)[C@H](CO)NC(=O)[C@H](CC(C)C)NC(=O)[C@H](CCC(=O)O)NC(=O)[C@H](CO)NC(=O)[C@H](C)NC(=O)[C@H](CCC(=O)O)NC(=O)CCCCCCCCCCCCCCCCC(=O)O)[C@@H](C)O)C(=O)NCC(=O)N[C@@H](CCCNC(=N)N)C(=O)N[C@@H](CC(C)C)C(=O)N[C@@H](CO)C(=O)N[C@@H](C)C(=O)N[C@@H](CCC(=O)O)C(=O)N[C@@H](CC(C)C)C(=O)N[C@@H](Cc1cnc[nH]1)C(=O)N[C@@H](CCC(=O)O)C(=O)N[C@@H](CC(C)C)C(=O)N[C@@H](C)C(=O)N[C@H](C(=O)N[C@@H](CC(C)C)C(=O)N1CCC[C@H]1C(=O)N[C@@H](CCCNC(=N)N)C(=O)N[C@H](C(=O)N[C@@H](CCC(=O)O)C(=O)N[C@H](C(=O)NCC(=O)N1CCC[C@H]1C(=O)N[C@@H](CCC(=O)O)C(=O)N[C@@H](Cc1cnc[nH]1)C(=O)N1CCC[C@H]1C(N)=O)[C@@H](C)O)[C@@H](C)O)[C@@H](C)O` [compound 18, [N-terminal(C18 diacid), 32H]mimylin] ({C18 diacid}-EASELSTAALGRLSAELHELATLPRTETGPEHP-NH2), the Solubility entry (pH 3.0) is given as “≧200 μM”; the Solubility result (pH 4.0) is on record as “≧200 μM”; the Solubility entry (pH 5.0) is reported as “≧200 μM”; the Solubility result (pH 6.0) is given as “≧200 μM”; the Solubility result (pH 6.5) is “≧200 μM”; the Solubility entry (pH 7.0) is reported as “≧200 μM”. For the same compound, the Solubility entry is given as “≧200 μM” (pH 7.5) and “≧200 μM” (pH 8.0).

Turning to `CC(C)C[C@H](NC(=O)[C@H](C)NC(=O)[C@@H](NC(=O)[C@H](CO)NC(=O)[C@H](CC(C)C)NC(=O)[C@H](CCC(=O)O)NC(=O)[C@H](CO)NC(=O)[C@H](C)NC(=O)[C@H](CCC(=O)O)NC(=O)CCCCCCCCCCCCCCCCC(=O)O)[C@@H](C)O)C(=O)N[C@@H](CC(C)C)C(=O)NCC(=O)N[C@@H](CCCNC(=N)N)C(=O)N[C@@H](CC(C)C)C(=O)N[C@@H](CO)C(=O)N[C@@H](C)C(=O)N[C@@H](CCC(=O)O)C(=O)N[C@@H](CC(C)C)C(=O)N[C@@H](Cc1cnc[nH]1)C(=O)N[C@@H](CCC(=O)O)C(=O)N[C@@H](CC(C)C)C(=O)N[C@@H](C)C(=O)N[C@H](C(=O)N[C@@H](CC(C)C)C(=O)N1CCC[C@H]1C(=O)N[C@@H](CCCNC(=N)N)C(=O)N[C@H](C(=O)N[C@@H](CCC(=O)O)C(=O)N[C@H](C(=O)NCC(=O)N1CCC[C@H]1C(=O)N[C@@H](CCC(=O)O)C(=O)N[C@@H](CO)C(=O)N1CCC[C@H]1C(N)=O)[C@@H](C)O)[C@@H](C)O)[C@@H](C)O` [compound 14, [N-terminal(C18 diacid), 9L]mimylin] ({C18 diacid}-EASELSTALLGRLSAELHELATLPRTETGPESP-NH2), the Solubility result is given as “≧200 μM” (pH 3.0); “≧200 μM” (pH 4.0); “≧200 μM” (pH 5.0); “≧200 μM” (pH 6.0); “≧200 μM” (pH 6.5); “≧200 μM” (pH 7.0). Further, the Solubility result is, setting by setting: (pH 7.5) “≧200 μM”; (pH 8.0) “≧200 μM”.

One may read the solubility as the concentration that dissolves in the medium under given conditions. Low readings indicate a poorly soluble substance, high ones a readily soluble substance.
